In PMC12040169 (PLOS Biology, 2025):

experiment: in vitro; details: human, hela cells, % viability

Row | SMILES | viability at 28.5 h, 10 µM
1 | CNC(=O)c1ccc(-c2ccc(CNC(=O)C(C)Oc3ccc(C)c(C)c3)cc2)nc1C (centres unmarked) [CBK286014] | 104%
2 | CNC(=O)c1ccc(-c2ccc(CNC(=O)CCc3cccc(Cl)c3)cc2)nc1C [CBK286015] | 86.9%
3 | Cc1nc(-c2ccc(CNC(=O)C(Cc3ccccc3)N3CCCC3)cc2)ccc1C(N)=O (centres unmarked) [CBK286017] | 92.6%
4 | CC(C)(CNC(=O)c1ccc(=O)n(CC(=O)N2CCc3ccccc32)c1)c1ccccc1F [CBK286020] | 127%
5 | O=C(Cn1cc(C(=O)NC2(c3ccccc3)CCCC2)ccc1=O)NCc1ccc(F)cc1 [CBK286027] | 84.4%
6 | COc1cccc(CC(=O)N2[C@H](Cc3ccccc3)C[C@@H]3NCCCCC[C@H]32)c1 [CBK286030] | 105%
7 | Cc1[nH]c2ccccc2c1C(=O)N1CCC(CC(=O)N2CCN(c3ccccc3)CC2)CC1 [CBK286033] | 96.6%
8 | Cc1ccc2c(c1)cc(C(=O)N1CCOC(C(=O)N3CCc4ccccc4C3)C1)n2C (centres unmarked) [CBK286035] | 93.8%
9 | Cc1cc(C(=O)N2CCCC(c3ccc(Cc4ccc(Cl)cc4)cn3)C2)nc(N(C)C)n1 (centres unmarked) [CBK286036] | 116%
10 | CC(=O)N1CCCC1C(=O)N1CC(C(=O)Nc2nc3c(C)cc(C)cc3s2)C1 (centres unmarked) [CBK286039] | 86%
11 | O=C(Cn1cc(C(=O)NCC2(c3ccccc3)CCCC2)ccc1=O)NC1CCCC1 [CBK286040] | 104%
12 | CC(C)c1ncc(CN2CCC(CC(=O)N3CCN(c4ccccc4)CC3)CC2)cn1 [CBK286048] | 101%
13 | CC(C)c1ccc(C(C)NC(=O)Cn2cc(C(=O)Nc3ccc(F)cc3)ccc2=O)cc1 (centres unmarked) [CBK286049] | 97.6%
14 | CC1CCc2nc(NC(=O)Cn3cc(C(=O)Nc4ccc(F)cc4)ccc3=O)sc2C1 (centres unmarked) [CBK286053] | 100%
15 | O=C(Cn1cccc(C(=O)NC2CCCCC2)c1=O)NCC1(c2ccccc2Cl)CC1 [CBK286054] | 94.6%
16 | O=C(Cn1cccc(C(=O)Nc2ccc(F)cc2)c1=O)NC1(c2ccccc2)CCCC1 [CBK286057] | 96.3%
17 | O=C(Cn1cccc(C(=O)NC2CCCCC2)c1=O)NC1(c2ccccc2)CCCC1 [CBK286059] | 85.1%
18 | CC1CCc2nc(NC(=O)Cn3cccc(C(=O)NC4CCCCC4)c3=O)sc2C1 (centres unmarked) [CBK286064] | 101%
19 | CC(C)(CNC(=O)Cn1cccc(C(=O)Nc2ccc(F)cc2)c1=O)c1ccccc1F [CBK286067] | 97.4%
20 | CC(C)(CNC(=O)Cn1cccc(C(=O)NC2CCCCC2)c1=O)c1cccc(F)c1 [CBK286069] | 86.9%
21 | O=C(NCC1(c2ccccc2Cl)CC1)c1ccc(=O)n(CC(=O)N2CCCCC2)c1 [CBK286077] | 84.8%
22 | O=C(Cn1cc(C(=O)Nc2ccc(F)cc2)ccc1=O)Nc1nc2c(s1)CCCCC2 [CBK286080] | 99.3%
23 | O=C(NCC1(c2ccccc2)CCCC1)c1ccc(=O)n(CC(=O)N2CCCCC2)c1 [CBK286082] | 93.5%
24 | O=C(Nc1cc(F)ccc1N1CCCC1)c1ccc(=O)n(CC(=O)N2CCCCC2)c1 [CBK286083] | 97.7%
25 | CNC(=O)c1sc2ccccc2c1C1CN(Cc2cn(C)c3cc(OC)ccc23)CCO1 (centres unmarked) [CBK286087] | 91.9%
26 | Cc1ccc(C2CCCN2C(=O)c2ccc(=O)n(CC(=O)Nc3ccc(F)cc3)c2)cc1C (centres unmarked) [CBK286088] | 107%
27 | O=C(CN1CCC(c2cccc(Cc3cccc(F)c3)n2)CC1)Nc1nccs1 [CBK286090] | 91.8%

Row | SMILES | viability at 28.5 h, 10 µM
28 | Cc1noc(C)c1CC(=O)N1[C@H]2CCCCCN(C)[C@@]2(C)C[C@H]1c1ccccc1 [CBK286094] | 85.8%
29 | CC(C)c1ccc(C(C)NC(=O)Cn2cc(C(=O)NC3CCCCC3)ccc2=O)cc1 (centres unmarked) [CBK286097] | 100%
30 | CCCn1cnc2cc(NC(=O)Cn3cc(C(=O)NC4CCCCC4)ccc3=O)ccc21 [CBK286098] | 96.6%
31 | O=C(Cn1cc(C(=O)NC2CCCCC2)ccc1=O)NCC1(c2ccccc2Cl)CC1 [CBK286101] | 86.4%
32 | COc1ccccc1-c1ccc(CN(C)Cc2ccccc2N2CCOCC2)cc1 [CBK286108] | 90.6%
33 | CN(C(=O)Cn1cccc(C(=O)NCC(C)(C)c2ccc(F)cc2)c1=O)C1CCCCC1 [CBK286112] | 108%
34 | Cc1nn(C)cc1S(=O)(=O)N1CCC(c2cccc(Cc3ccccc3Cl)n2)CC1 [CBK286115] | 95.3%
35 | CCn1ncc(S(=O)(=O)N2CCC(c3cccc(Cc4ccccc4C)n3)CC2)c1C [CBK286116] | 91%
36 | COc1ccc(CN2CCCc3c(C)nc(C4CCCN(C(=O)C5CCC5)C4)nc32)cc1 (centres unmarked) [CBK286117] | 95.1%
37 | Cc1cc(N2CCC(c3cc(CCOc4ccc(Cl)cc4)[nH]n3)C2)nc(C)n1 (centres unmarked) [CBK286119] | 98.1%
38 | Cc1ccc(Nc2nccc(C3CCCN(Cc4ccc5[nH]ccc5c4)C3)n2)nc1 (centres unmarked) [CBK286122] | 88%
39 | COC(C)(C)C(=O)N1CCCC(c2ccc(Cc3cccc(C(F)(F)F)c3)cn2)C1 (centres unmarked) [CBK286124] | 107%
40 | CC(=O)Nc1ccc(C(=O)N2CCCC(c3cccc(Cc4ccccc4Cl)n3)C2)cc1 (centres unmarked) [CBK286126] | 109%
41 | CC(=O)Nc1cccc(-c2nccnc2C2CCCN(CCc3ccccc3)C2)c1 (centres unmarked) [CBK286128] | 110%
42 | CC(C)c1ccc(OCCc2cc(C3CCN(C(=O)CC4CCCC4)C3)n[nH]2)cc1 (centres unmarked) [CBK286129] | 102%
43 | Cc1ccc(C2(O)CCN(C(=O)CC3CCN(C(=O)CC4CCCCC4)CC3)C2)cc1 (centres unmarked) [CBK286132] | 96.9%
44 | COc1ccc(CN2CCCC(c3nccnc3-c3cccc(NC(C)=O)c3)C2)cc1 (centres unmarked) [CBK286135] | 104%
45 | O=S(=O)(c1ccc(F)cc1)N1CCCC(c2nccnc2-c2ccc(F)cc2)C1 (centres unmarked) [CBK286136] | 117%
46 | COc1cccc(-c2nccnc2C2CCCN(S(=O)(=O)c3ccc(F)cc3)C2)c1 (centres unmarked) [CBK286138] | 108%
47 | Cc1ccccc1Cc1cccc(C2CCN(S(=O)(=O)c3cn(C)nc3C)CC2)n1 [CBK286141] | 86.7%
48 | O=C(c1ccc(F)cc1)N1CCCC(c2nccnc2-c2cccc(C(F)(F)F)c2)C1 (centres unmarked) [CBK286142] | 98.3%
49 | COc1ccccc1-c1cccc(C2CCCN(C(=O)Cc3c[nH]c4ccccc34)C2)n1 (centres unmarked) [CBK286143] | 100%
50 | CC(=O)Nc1ccc(C(=O)N2CCCC2c2cccc(Cc3ccc(Cl)cc3)n2)cc1 (centres unmarked) [CBK286144] | 110%
51 | Cc1ncsc1C(=O)N1CCC(c2cccc(Cc3ccccc3Cl)n2)CC1 [CBK286146] | 99.2%
52 | Cc1ccccc1-c1cncc(C2CCN(C(=O)Cc3c[nH]c4ccccc34)CC2)n1 [CBK286148] | 79.4%
53 | COc1cccc(-c2cncc(C3CCCN(Cc4ccc5[nH]ccc5c4)C3)n2)c1 (centres unmarked) [CBK286151] | 84.7%
54 | Cc1ccc2cc(CNc3ccc(-c4nc5cc(C)ccc5[nH]4)cc3)c(O)nc2c1 [CBK286156] | 70.8%

Row | SMILES | viability at 28.5 h, 10 µM
55 | COc1ccc2cc(CNc3ccc(Oc4ccccc4)cc3)c(=O)[nH]c2c1 [CBK286158] | 83.7%
56 | COc1ccc2cc(CNc3ccc(CCc4nc5ccccc5n4C)cc3)c(=O)[nH]c2c1 [CBK286159] | 103%
57 | COc1ccc2[nH]c(=O)c(CNc3ccc(CCc4nc5ccccc5n4C)cc3)cc2c1 [CBK286162] | 87.9%
58 | c1ccc(CN2CCC(NCc3ccco3)C(c3ccccc3)C2)cc1 (centres unmarked) [CBK286167] | 95.4%
59 | O=C(CN1C2CCC1CC(O)(c1ccco1)C2)N1c2ccccc2CCc2ccccc21 (centres unmarked) [CBK286168] | 94%
60 | O=C(c1nc2ccccc2s1)C1CCN(C(=O)CCc2ccc(-c3ccccc3)o2)CC1 [CBK286170] | 86.8%
61 | CC[C@H](Cn1ncc2ccccc2c1=O)NC(=O)c1ccc2c(c1)Sc1ccccc1O2 [CBK286173] | 81.3%
62 | O=C(c1ccc(-c2ccc(F)cc2)o1)N1CCC(n2c(=O)oc3ccccc32)CC1 [CBK286175] | 104%
63 | COc1ccc(N2CCN(c3c(C)c(C)nc4cc(-c5nccn5C)nn34)CC2)cc1 [CBK286178] | 85.1%
64 | COc1ccc(C(=O)Cn2nc3nnc(-c4ccccc4)c(-c4ccccc4)n3c2=O)cc1 [CBK286181] | 83.4%
65 | COc1ccccc1N1CCN(c2c(C)c(C)nc3cc(-c4nccn4C)nn23)CC1 [CBK286182] | 87.5%
66 | O=C(Cc1ccc(-c2ccccc2)cc1)N1CCC2(CC1)Nc1ccccc1S(=O)(=O)N2 [CBK286189] | 79.2%
67 | CCC1Oc2ccc(C(O)c3ccco3)cc2N(Cc2cccc(OC)c2)C1=O (centres unmarked) [CBK286190] | 89.7%
68 | COc1cc2c(cc1OC)C1c3ccccc3N(Cn3nnc4ccccc43)C(=O)N1CC2 (centres unmarked) [CBK286193] | 84.2%
69 | Cc1ccc2c(c1)oc(=O)n2CCNC(=O)CC1c2ccccc2Oc2ccccc21 [CBK286194] | 94.8%
70 | c1ccc(-c2nnc(-c3ccco3)c(-c3ccco3)n2)cc1 [CBK286196] | 83.7%
71 | O=C(NCCn1c(=O)oc2ccccc21)C(c1cccs1)c1cccs1 [CBK286198] | 99.8%
72 | CC(=O)N1CCc2sccc2C1c1ccc(NC(=O)c2ccco2)cc1 (centres unmarked) [CBK286199] | 102%
73 | CN(C)c1ccc(NC(=O)CN2C(=O)[C@H]3CCCN3c3ncccc32)cc1 [CBK286202] | 118%
74 | O=C(CN1C(=O)[C@@H]2CCCN2c2ncccc21)NC1CCCCC1 [CBK286204] | 116%
75 | COc1cccc(-c2cccc(C3CCCN(C(=O)Cc4c[nH]c5ccccc45)C3)n2)c1 (centres unmarked) [CBK286207] | 114%
76 | O=C(COc1ccccc1)N1CCC(c2cccc(Cc3ccccc3F)n2)CC1 [CBK286211] | 104%
77 | COc1ccc(CCC(=O)N2CCC(c3cccc(Cc4cccc(F)c4)n3)CC2)cc1 [CBK286212] | 105%
78 | O=C(Cc1ccc(F)cc1)N1CCC(c2cccc(Cc3ccccc3F)n2)CC1 [CBK286213] | 117%
79 | O=C(CN1CCCC1)N1CCC(c2cccc(Cc3ccc(C(F)(F)F)cc3)n2)CC1 [CBK286215] | 106%
80 | Cc1ncsc1C(=O)N1CCC(c2cccc(Cc3ccc(C(F)(F)F)cc3)n2)CC1 [CBK286216] | 99.5%
